Measured values published in the supplement of paper PMC6045584.
± gives the standard deviation of the averaged measurements.

How the values were obtained:
[1] = compound: COc1cccc2c1C(=O)c1c(O)c3c(c(O)c1C2=O)C[C@@](O)(C(=O)CO)C[C@@H]3O[C@H]1C[C@H](N)[C@H](O)[C@H](C)O1 [DOXORUBICIN]; test: area under dose-response curve of surviving fraction (unscaled, Aref=0) (surviving fraction x log10(nM)); higher = more resistant; settings: exposure time: 5 days; dose range 0.5-1000 nM
Method in brief: (§1)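 Surviving fractions were fitted by 3-parameter logistic regression in the drc R package to give dose-response survival curves. They came from tumour cell lines treated for five days with eight inhibitor concentrations from 0.5 to 1000 nM and read by CellTiter-Glo luminescence against DMSO-only wells. The area under the curve is the unscaled activity area. It was calculated over log10 dose with Aref = 0.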

[2] = compound: COc1ccc(C2=N[C@@H](c3ccc(Cl)cc3)[C@@H](c3ccc(Cl)cc3)N2C(=O)N2CCNC(=O)C2)c(OC(C)C)c1 [NUTLIN3]; test: as above; settings: exposure time: 5 days; dose range 0.5-1000 nM
Method in brief: as §1

[3] = compound: CC[C@@H](C(=O)[C@@H](C)[C@@H](O)[C@H](C)[C@@H]1O[C@@H]([C@@H](CC)C(=O)O)CC[C@@H]1C)[C@H]1O[C@]2(C=C[C@@H](O)[C@]3(CC[C@@](C)([C@H]4CC[C@](O)(CC)[C@H](C)O4)O3)O2)[C@H](C)C[C@@H]1C [SALINOMYCIN]; test: as above; settings: exposure time: 5 days; dose range 0.5-1000 nM
Method in brief: as §1

[4] = compound: CS(=O)(=O)c1ccc(C(=O)Nc2ccc(Cl)c(-c3ccccn3)c2)c(Cl)c1 [VISMODEGIB]; test: as above; settings: exposure time: 5 days; dose range 0.5-1000 nM
Method in brief: as §1

[5] = compound: C=CCNC1=C2C[C@@H](C)C[C@H](OC)[C@H](O)[C@@H](C)/C=C(\C)[C@H](OC(N)=O)[C@@H](OC)/C=C\C=C(/C)C(=O)NC(=CC1=O)C2=O [17-AAG]; test: as above; settings: exposure time: 5 days; dose range 0.5-1000 nM
Method in brief: as §1

[6] = compound: CCN(CC)CCCCNc1ncc2cc(-c3cc(OC)cc(OC)c3)c(NC(=O)NC(C)(C)C)nc2n1; test: as above; settings: exposure time: 5 days; dose range 0.5-1000 nM
Method in brief: as §1

[7] = compound: T1, CN1CC[C@H](c2c(O)cc(O)c3c(=O)cc(-c4ccccc4Cl)oc23)[C@H](O)C1 [FLAVOPIRIDOL]; test: surviving fraction relative to DMSO-only wells; higher = less growth inhibition; settings: exposure time: 5 days
Method in brief: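 Viability was scored with CellTiter-Glo luminescence and normalised to the median of DMSO-only wells as surviving fraction. Beforehand, log-phase tumour cell lines were seeded at 250–500 cells per well in 384-well plates, allowed 24 hours, and exposed continuously for five days to inhibitors at 0.5, 1, 5, 10, 50, 100, 500 and 1000 nM. Only lines whose three screens gave replicate Pearson r >0.7 and median Z' >0.3 were kept.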

[8] = compound: CS(=O)(=O)CCNCc1ccc(-c2ccc3ncnc(Nc4ccc(OCc5cccc(F)c5)c(Cl)c4)c3c2)o1 [LAPATINIB]; test: area under dose-response curve of surviving fraction (unscaled, Aref=0) (surviving fraction x log10(nM)); higher = more resistant; settings: exposure time: 5 days; dose range 0.5-1000 nM
Method in brief: as §1

[9] = compound: T1, FLAVOPIRIDOL; test: as above; settings: exposure time: 5 days; dose range 0.5-1000 nM
Method in brief: as §1

[10] = compound: Nc1ncn([C@H]2C[C@H](O)[C@@H](CO)O2)c(=O)n1 [DECITABINE]; test: as above; settings: exposure time: 5 days; dose range 0.5-1000 nM
Method in brief: as §1

[11] = compound: COc1cc2c(cc1O)CC[C@@H]1[C@@H]2CC[C@]2(C)[C@@H](O)CC[C@@H]12 [2-METHOXYESTRADIOL]; test: as above; settings: exposure time: 5 days; dose range 0.5-1000 nM
Method in brief: as §1

[12] = compound: CN(C)CC[C@H](CSc1ccccc1)Nc1ccc(S(=O)(=O)NC(=O)c2ccc(N3CCN(Cc4ccccc4-c4ccc(Cl)cc4)CC3)cc2)cc1[N+](=O)[O-] [ABT-737]; test: as above; settings: exposure time: 5 days; dose range 0.5-1000 nM
Method in brief: as §1

Test System	area under dose-response curve [1]	area under dose-response curve [2]	area under dose-response curve [3]	area under dose-response curve [4]	area under dose-response curve [5]	area under dose-response curve [6]	surviving fraction ([7]; 0.5 nM)	surviving fraction ([7]; 1 nM)	surviving fraction ([7]; 5 nM)	surviving fraction ([7]; 10 nM)	surviving fraction ([7]; 50 nM)	surviving fraction ([7]; 100 nM)	surviving fraction ([7]; 500 nM)	surviving fraction ([7]; 1000 nM)	area under dose-response curve [8]	area under dose-response curve [9]	area under dose-response curve [10]	area under dose-response curve [11]	area under dose-response curve [12]
143B BONE	2.11	3.5	3.23	3.22	2.38	3.04	1.12 ± 0.14	1.11 ± 0.086	1.11 ± 0.048	1.11 ± 0.095	0.824 ± 0.024	0.279 ± 0.0035	0.045 ± 0.0028	0.042 ± 0.0028	–	–	–	–	–
ASKA SYNOVIAL	0.989	–	3.15	3.21	1.27	–	1.02 ± 0.087	1.02 ± 0.066	1.11 ± 0.054	1.11 ± 0.036	0.507 ± 0.065	0.202 ± 0.01	0.186 ± 0.012	0.261 ± 0.0078	3.82	2.27	3.08	3.04	–
BT20 BREAST	1.48	3.59	3.84	3.18	1.37	3.96	1.21 ± 0.073	1.16 ± 0.022	1.17 ± 0.1	1.013 ± 0.0035	0.742 ± 0.12	0.359 ± 0.012	0.038 ± 0.0062	0.0367 ± 0.004	3.84	2.22	4.16	–	–
CHLA90 AUTONOMIC GANGLIA	1.8	3.33	2.67	3.12	2.06	2.92	0.987 ± 0.1	1 ± 0.12	0.906 ± 0.083	0.878 ± 0.021	0.826 ± 0.11	0.573 ± 0.072	0.0277 ± 0.0015	0.0247 ± 0.00058	–	2.36	–	3.22	3.26
CME SYNOVIAL	1.52	4.32	2.88	3.77	1.9	3.88	1.13 ± 0.18	1.22 ± 0.07	1.23 ± 0.081	1.2 ± 0.07	0.864 ± 0.053	0.25 ± 0.0067	0.168 ± 0.004	0.228 ± 0.012	4.25	2.35	2.82	–	4.41
HCC202 BREAST	2.27	3.88	2.48	3.06	1.59	4.1	0.988 ± 0.55	1.17 ± 0.34	1.13 ± 0.22	1.06 ± 0.31	0.847 ± 0.13	0.304 ± 0.012	0.0405 ± 0.00071	0.0405 ± 0.00071	–	–	–	–	–
JURKAT HAEMATOPOIETIC AND LYMPHOID TISSUE	1.12	3.49	2.52	–	2.65	3.44	1.04 ± 0.018	1.07 ± 0.046	1.05 ± 0.026	1.04 ± 0.042	0.708 ± 0.022	0.119 ± 0.0035	0.031 ± 0.001	0.0303 ± 0.0011	3.21	2.12	1.56	2.65	3.08
LNCAP PROSTATE	1.09	2.82	1.9	–	1.33	2.96	0.884 ± 0.014	0.917 ± 0.0082	0.849 ± 0.038	0.84 ± 0.015	0.409 ± 0.071	0.028 ± 0.0036	0.043 ± 0.0027	0.0397 ± 0.0011	3.12	1.78	2.75	2.89	3.07
MDAMB157 BREAST	1.21	3.22	2.66	3.26	1.61	2.73	0.999 ± 0.025	0.921 ± 0.096	0.986 ± 0.073	0.927 ± 0.018	0.769 ± 0.022	0.3 ± 0.027	0.0433 ± 0.016	0.0383 ± 0.0076	3.27	2.21	2.4	3.1	3.26
NCIH441 LUNG	2.15	3.56	3.12	3.27	2.37	3.37	1.18 ± 0.06	1.12 ± 0.026	1.09 ± 0.042	1.08 ± 0.11	0.953 ± 0.081	0.698 ± 0.17	0.103 ± 0.024	0.0917 ± 0.024	3.58	2.48	2.57	3.22	–
NOS1 BONE	2.15	3.66	2.83	–	1.6	3.02	1.25 ± 0.046	1.19 ± 0.054	1.22 ± 0.15	1.26 ± 0.084	0.54 ± 0.061	0.083 ± 0.0027	0.031 ± 0.004	0.0383 ± 0.0084	3.54	2.06	3.34	–	3.75
SG28 HEADNECK	2.4	3.29	2.71	3	1.95	3.28	1.11 ± 0.096	1.1 ± 0.023	1.02 ± 0.081	1.04 ± 0.099	0.594 ± 0.089	0.0495 ± 0.0064	0.0315 ± 0.00071	0.032 ± 0.0028	–	–	–	–	–
SG31 HEADNECK	2.02	3.23	2.81	3.05	1.94	3.09	1.51 ± 0.26	1.23 ± 0.055	0.964 ± 0.096	0.988 ± 0.053	0.483 ± 0.057	0.147 ± 0.038	0.0443 ± 0.024	0.027 ± 0.0046	–	2.03	–	3.42	3.88
SG32 HEADNECK	1.68	3.75	2.42	–	1.96	3.36	1.14 ± 0.2	1.28 ± 0.092	1.07 ± 0.24	0.823 ± 0.14	0.227 ± 0.063	0.048 ± 0.01	0.0283 ± 0.013	0.0237 ± 0.0046	3.6	1.72	–	2.92	3.48
SIHA CERVIX	2.16	3.54	2.93	–	2.23	3.08	1.07 ± 0.041	1.05 ± 0.067	1.1 ± 0.081	1.03 ± 0.032	0.714 ± 0.045	0.336 ± 0.056	0.0243 ± 0.0015	0.023 ± 0.001	3.53	2.19	3.46	3.15	3.73
SUM149.B1*.S BREAST	2	3.61	2.9	–	1.93	–	1.1 ± 0.047	1.09 ± 0.024	1.08 ± 0.063	1.044 ± 0.0039	1 ± 0.037	0.459 ± 0.06	0.0462 ± 0.0049	0.0412 ± 0.0016	–	2.37	–	3.49	3.79
ZR751 BREAST	2.06	–	2.67	2.87	1.74	3.3	1.28 ± 0.14	1.25 ± 0.051	1.21 ± 0.037	1.25 ± 0.033	1.108 ± 0.0081	0.453 ± 0.057	0.089 ± 0.0095	0.0853 ± 0.0065	2.92	2.38	–	–	3.53
